For assay [1], the system named is TF1 cells maintained with IL-6. The assay can be described thus: Bioassay using TF1 cells maintained with IL-6. The class given is cell-based, human. More on the design: TF1: unit not given here. The note with it: for TF1: MPS crude peptides, Table 6. The text has this:
TF1 cells (human erythroleukemia) cells require IL-6 for growth and thus inhibition of IL-6 bioactivity results in cell death, similar to T1165 cells. The origin of all relevant molecules is human.
The problem associated with toxicity (false positive results), could be overcome in the TF1 based assay since these cells can be induced by additional cytokines which are unrelated to IL-6 (not using the gp130 signal transducer). It, is possible to induce the cells to grow with IL-6 and with additional cytokine e.g. GM-CSF. Specific inhibition of IL-6 bioactivity is therefore expected to register only in cells induced by IL-6 and not with GM-CSF. […] Assay procedure is based on the procedure described in Fourcin et al. (ibid). The amount of viable cells at the end of the assay is determined by staining the cells with WST reagent as well as by measuring thymidine corporation (^3H-T).
The libraries were screened for binding of soluble IL-6. The information obtained was used for synthesis of backbone cyclic peptides in MPS format. Analyses for biological activity were performed on the TF1 human cell line.
Since the endpoint of the bioassay used is cell death, there is a need to check the specificity of the killing action, and to examine whether the cell death is due to inhibition of the IL-6 signaling pathway. The peptide analogs were therefore analyzed for their ability to induce non-specific cell death when the same cells were maintained with GM-CSF (instead of IL-6) as growth factor.

The test system of the next assay is B16.F10.9 melanoma cells. To be noted: for B16F10.9 active at: theoretical crude concentration, MPS peptides.

Numbered stars: 1 amine (or outer) side, 2 acyl side, 3 side chain; on linkers, the order of the positions; unused ones are H or OH. Bridge positions count the residues as written; N and C are the ends. Square brackets hold non-standard residues; d marks the D form. Peptide text beside a SMILES is read from it. ξ: configuration not given here. Ala(Nα-(CH2)3CO) = C[C@@H](C(=O)[*:2])N(CCCC(=O)[*:3])[*:1]; Ala(Nα-(CH2)3NH) = C[C@@H](C(=O)[*:2])N(CCCN[*:3])[*:1]; Gly(Nα-(CH2)3CO) = O=C(CN(CCCC(=O)[*:3])[*:1])[*:2]; N(2-Aminoethyl)Gly = O=C(CN(CCN[*:3])[*:1])[*:2]; ξY = NC(Cc1ccc(O)cc1)C(=O)O

Description for B16.F10.9 melanoma cells: The F10.9 sub-line of B16 (murine melanoma) expresses gp130 but not IL-6R. Addition of human IL-6 and human IL-6R, or a chimera of IL-6/IL-6R results in differentiation which is associated with growth arrest of the cells. Inhibition of IL-6 results in continued growth. Since the end point of this assay is cell growth rather than cell death, this assay system was used primarily in order to differentiate between suspected toxic effects observed on B9 or T1165 cells, and true inhibition of IL-6 activity.
Evaluation of the results in this assay is possible using two methods. One method uses vital dyes for monitoring cell growth. The second method comprises visual observation of the cell morphology and establishing a cut off point based on the following observations:
Cells which are not treated with IL-6 create a monolayer that covers almost all the surface area. Treatment with IL-6 causes growth arrest and a morphological change: the cells become very narrow and elongated as compared to the more spread out shape of the non-treated cells.
Peptides were added to B16.F10.9 melanoma cells in the presence of 200 ng/ml IL-6 and 125 ng/ml sIL-6R. Incubation for three days.

Consider `CC(C)C[C@@H]1NC(=O)[C@H](C)N(C(=O)[C@@H](Cc2ccccc2)NC(=O)[C@@H](CCCNC(=N)N)NC(=O)[C@H](CCCCN)NC(=O)[C@H](CCCNC(=N)N)NC(=O)[C@@H](N)Cc2c[nH]c3ccccc23)CCCC(=O)NCCCN([C@@H](C)C(N)=O)C(=O)C(Cc2ccc(O)cc2)NC(=O)[C@H](CCCNC(=N)N)NC1=O` (stereo partly drawn) [Trp-Arg-Lys-(D)Arg-(D)Phe-AlaC3-Leu-Arg-BTyr-AlaN3] (H-WRK[dR][dF][Ala(Nα-(CH2)3CO)]LR[ξY][Ala(Nα-(CH2)3NH)]-NH2; lactam 6-10), for which, in assay [1], the TF1 was determined as 41. Besides, the B16F10.9 active at in the assay with B16.F10.9 melanoma cells is <12 µM.

`C[C@@H](C(N)=O)N1CCCNC(=O)CCCN(C(=O)[C@@H](Cc2ccccc2)NC(=O)[C@H](CCCNC(=N)N)NC(=O)[C@H](CCCCN)NC(=O)[C@H](CCCNC(=N)N)NC(=O)[C@H](N)CCCCN)[C@@H](C)C(=O)N[C@@H](CCCCN)C(=O)N[C@H](CCCNC(=N)N)C(=O)N[C@H](Cc2ccc(O)cc2)C1=O` [(D)Lys-Arg-Lys-Arg-(D)Phe-AlaC3-Lys-(D)Arg-(D)Tyr-AlaN3] (H-[dK]RKR[dF][Ala(Nα-(CH2)3CO)]K[dR][dY][Ala(Nα-(CH2)3NH)]-NH2; lactam 6-10) returned a TF1 in assay [1] of 17. In the assay on B16.F10.9 melanoma cells, this molecule showed a B16F10.9 active at of 62 µM.

The molecule “(D)Lys-Arg-Lys-Arg-Phe-AlaC3-Lys-Arg-(D)Tyr-AlaN3” yielded a TF1 in assay [1] of 21. Further, in the assay on B16.F10.9 melanoma cells, the B16F10.9 active at entry is “not active”.

Take `CC(C)C[C@@H]1NC(=O)[C@H](C)N(C(=O)[C@@H](Cc2ccccc2)NC(=O)[C@@H](CCCNC(=N)N)NC(=O)[C@H](CCCCN)NC(=O)[C@H](CCCNC(=N)N)NC(=O)[C@H](N)CCCCN)CCCC(=O)NCCCN([C@@H](C)C(N)=O)C(=O)[C@H](Cc2ccc(O)cc2)NC(=O)[C@H](CCCNC(=N)N)NC1=O` [(D)Lys-Arg-Lys-(D)Arg-(D)Phe-AlaC3-Leu-Arg-Tyr-AlaN3] (H-[dK]RK[dR][dF][Ala(Nα-(CH2)3CO)]LRY[Ala(Nα-(CH2)3NH)]-NH2; lactam 6-10): the TF1 in assay [1] is reported as 13. The B16F10.9 active at with B16.F10.9 melanoma cells is 62 µM.

In assay [1], `CC(C)C[C@H]1NC(=O)[C@H](C)N(C(=O)[C@H](Cc2ccccc2)NC(=O)[C@@H](CCCNC(=N)N)NC(=O)[C@H](CCCCN)NC(=O)[C@H](CCCNC(=N)N)NC(=O)[C@H](N)CCCCN)CCCC(=O)NCCCN([C@@H](C)C(N)=O)C(=O)[C@H](Cc2ccc(O)cc2)NC(=O)[C@H](CCCNC(=N)N)NC1=O` [(D)Lys-Arg-Lys-(D)Arg-Phe-AlaC3-(D)Leu-Arg-Tyr-AlaN3] (H-[dK]RK[dR]F[Ala(Nα-(CH2)3CO)][dL]RY[Ala(Nα-(CH2)3NH)]-NH2; lactam 6-10) displayed a TF1 of 3. Besides, the B16F10.9 active at in the assay on B16.F10.9 melanoma cells was determined as 62 µM.

`CC(C)C[C@@H]1NC(=O)[C@H](C)N(C(=O)[C@H](Cc2ccccc2)NC(=O)[C@@H](CCCNC(=N)N)NC(=O)[C@H](CCCCN)NC(=O)[C@H](CCCNC(=N)N)NC(=O)[C@@H](N)Cc2c[nH]c3ccccc23)CCCC(=O)NCCCN([C@@H](C)C(N)=O)C(=O)C(Cc2ccc(O)cc2)NC(=O)[C@H](CCCNC(=N)N)NC1=O` (stereo partly drawn) [Trp-Arg-Lys-(D)Arg-Phe-AlaC3-Leu-Arg-BTyr-AlaN3] (H-WRK[dR]F[Ala(Nα-(CH2)3CO)]LR[ξY][Ala(Nα-(CH2)3NH)]-NH2; lactam 6-10; C-terminus assumed) registered a TF1 in assay [1] of 32. Besides, the B16F10.9 active at in the assay on B16.F10.9 melanoma cells is <12 µM.

In the case of `C[C@@H](C(N)=O)N1CCCNC(=O)CCCN(C(=O)[C@@H](Cc2ccccc2)NC(=O)[C@@H](CCCNC(=N)N)NC(=O)[C@H](CCCCN)NC(=O)[C@H](CCCNC(=N)N)NC(=O)[C@H](N)CCCCN)[C@@H](C)C(=O)N[C@@H](CCCCN)C(=O)N[C@@H](CCCNC(=N)N)C(=O)N[C@@H](Cc2ccc(O)cc2)C1=O` [(D)Lys-Arg-Lys-(D)Arg-(D)Phe-AlaC3-Lys-Arg-Tyr-AlaN3] (H-[dK]RK[dR][dF][Ala(Nα-(CH2)3CO)]KRY[Ala(Nα-(CH2)3NH)]-NH2; lactam 6-10), the TF1 in assay [1] was determined as 17. In the assay on B16.F10.9 melanoma cells, this molecule had a B16F10.9 active at of 62 µM.

`C[C@@H](C(N)=O)N1CCCNC(=O)CCCN(C(=O)[C@@H](Cc2ccccc2)NC(=O)[C@H](CCCNC(=N)N)NC(=O)[C@H](CCCCN)NC(=O)[C@H](CCCNC(=N)N)NC(=O)[C@H](N)CCCCN)[C@@H](C)C(=O)N[C@@H](CCCCN)C(=O)N[C@@H](CCCNC(=N)N)C(=O)N[C@@H](Cc2ccc(O)cc2)C1=O` [(D)Lys-Arg-Lys-Arg-(D)Phe-AlaC3-Lys-Arg-Tyr-AlaN3] (H-[dK]RKR[dF][Ala(Nα-(CH2)3CO)]KRY[Ala(Nα-(CH2)3NH)]-NH2; lactam 6-10) returned a TF1 in assay [1] of 55. This molecule returned a B16F10.9 active at in the assay on B16.F10.9 melanoma cells of 62 µM.

The molecule “(D)Lys-Arg-Lys-Arg-Phe-AlaC3-Leu-Arg-(D)Tyr-AlaN3” had a TF1 in assay [1] of 25. Moreover, in the assay on B16.F10.9 melanoma cells, the B16F10.9 active at result is listed as “not active”.

The molecule “(D)Tyr-Arg-Lys-Arg-Phe-AlaC3-Lys-(D)Arg-(D)Tyr-AlaN3” came in with a TF1 in assay [1] of 22. The B16F10.9 active at entry in the assay on B16.F10.9 melanoma cells is “not active”.

`CC(C)C[C@@H](NC(=O)[C@H](CCCNC(=N)N)NC(=O)[C@H](N)CCCCN)C(=O)N[C@H](CCCNC(=N)N)C(=O)N[C@H](Cc1ccccc1)C(=O)N1CCCC(=O)NCCCN([C@@H](C)C(N)=O)C(=O)[C@@H](Cc2ccc(O)cc2)NC(=O)[C@H](CCCNC(=N)N)NC(=O)[C@@H](CC(C)C)NC(=O)[C@@H]1C` [PTR 5041, (D)Lys-Arg-(D) Leu-(D) Arg-(D)Phe-AlaC3-(D)Leu-Arg-(D)Tyr-AlaN3-NH2] (H-[dK]R[dL][dR][dF][Ala(Nα-(CH2)3CO)][dL]R[dY][Ala(Nα-(CH2)3NH)]-NH2; lactam 6-10) came in with a TF1 in assay [1] of 92. Moreover, the “concentration that fully blocks IL-6 activity” value in the assay with B16.F10.9 melanoma cells (200 ng/ml IL-6 and 125 ng/ml sIL-6R, three days, FIG. 2) is listed as “about 250 nM”. Further, in the assay with B16.F10.9 melanoma cells, the B16F10.9 active at was 47 µM.

For the molecule `CC(C)C[C@@H]1NC(=O)CN(C(=O)[C@H](Cc2ccccc2)NC(=O)[C@H](CCCNC(=N)N)NC(=O)[C@H](CC(C)C)NC(=O)[C@H](CCCNC(=N)N)NC(=O)[C@@H](N)Cc2ccc(O)cc2)CCCC(=O)NCCN(CC(N)=O)C(=O)[C@H](Cc2ccc(O)cc2)NC(=O)[C@H](CCCNC(=N)N)NC1=O` [PTR 5005, Tyr-Arg-Leu-Arg-Phe-GlyC3-Leu-Arg-Tyr-GlyN2] (H-YRLRF[Gly(Nα-(CH2)3CO)]LRY[N(2-Aminoethyl)Gly]-NH2; lactam 6-10), the “activity on TF1 cells” value in assay [1] (in words) is reported as “appears to be active”. In addition, the “IC50 in the B16F10.9 cell assay” value in the assay on B16.F10.9 melanoma cells is “around 10 μ/ml”.

In the case of `CC(C)C[C@@H]1NC(=O)[C@H](C)N(C(=O)[C@@H](Cc2ccccc2)NC(=O)[C@H](CCCNC(=N)N)NC(=O)[C@H](CCCCN)NC(=O)[C@H](CCCNC(=N)N)NC(=O)[C@H](N)CCCCN)CCCC(=O)NCCCN([C@@H](C)C(N)=O)C(=O)[C@@H](Cc2ccc(O)cc2)NC(=O)[C@H](CCCNC(=N)N)NC1=O` [(D)Lys-Arg-Lys-Arg-(D)Phe-AlaC3-Leu-Arg-(D)Tyr-AlaN3] (H-[dK]RKR[dF][Ala(Nα-(CH2)3CO)]LR[dY][Ala(Nα-(CH2)3NH)]-NH2; lactam 6-10), in assay [1], the TF1 is 23. In the assay on B16.F10.9 melanoma cells, this molecule registered a B16F10.9 active at of 62 µM.

`C[C@@H](C(N)=O)N1CCCNC(=O)CCCN(C(=O)[C@H](Cc2ccccc2)NC(=O)[C@H](CCCNC(=N)N)NC(=O)[C@H](CCCCN)NC(=O)[C@H](CCCNC(=N)N)NC(=O)[C@@H](N)CCCCN)[C@@H](C)C(=O)N[C@@H](CCCCN)C(=O)N[C@H](CCCNC(=N)N)C(=O)NC(Cc2ccc(O)cc2)C1=O` (stereo partly drawn) [Lys-Arg-Lys-Arg-Phe-AlaC3-Lys-(D)Arg-BTyr-AlaN3] (H-KRKRF[Ala(Nα-(CH2)3CO)]K[dR][ξY][Ala(Nα-(CH2)3NH)]-NH2; lactam 6-10) returned a TF1 in assay [1] of 21. Besides, the B16F10.9 active at in the assay with B16.F10.9 melanoma cells is 62 µM.

Source of the values: US6841533B1, “Conformationally constrained backbone cyclized interleukin-6 antagonists” (Peptor Limited, priority 1995, dated 2005).
